Assay results as given in ChEMBL document CHEMBL1147306, “Studies on inhibitors of skin tumor promotion, VI. Inhibitory effects of quinones on Epstein-Barr virus activation” (J Nat Prod, 1989).

Key:
Assay type in all cases: cell-based
[1] = Cytotoxicity against human Raji cells assessed as cell viability at 500 molar ratio; conditions: read-out: Activity
[2] = Cytotoxicity against human Raji cells assessed as cell viability at 100 molar ratio; conditions: read-out: Activity
Raji [3] = experiment: Inhibition of TPA-induced EBV-early antigen activation in human Raji cells at 10 molar ratio after 48 hrs by indirect immunofluorescence technique relative to TPA; conditions: human gammaherpesvirus 4
[4] = Cytotoxicity against human Raji cells assessed as cell viability at 1000 molar ratio; conditions: read-out: Activity
[5] = Cytotoxicity against human Raji cells assessed as cell viability at 10 molar ratio; conditions: read-out: Activity
Raji [6] = experiment: Inhibition of TPA-induced EBV-early antigen activation in human Raji cells at 100 molar ratio after 48 hrs by indirect immunofluorescence technique relative to TPA; conditions: human gammaherpesvirus 4
Raji [7] = experiment: Inhibition of TPA-induced EBV-early antigen activation in human Raji cells at 500 molar ratio after 48 hrs by indirect immunofluorescence technique relative to TPA; conditions: human gammaherpesvirus 4

| Compound | viability at 500 molar ratio [1] [%] | viability at 100 molar ratio [2] [%] | EBV-EA activation % of TPA control (Raji [3]) [%] | viability at 1000 molar ratio [4] [%] | viability at 10 molar ratio [5] [%] | EBV-EA activation % of TPA control (Raji [6]) [%] | EBV-EA activation % of TPA control (Raji [7]) [%] |
| --- | --- | --- | --- | --- | --- | --- | --- |
| O=C1c2ccc(O)cc2C(=O)c2ccc(O)cc21 [ANTHRAFLAVICACID] | > 80 | > 80 | 100 | > 80 | > 80 | 89.9 | 78.6 |
| COCc1c(O)cc2c(c1O)C(=O)c1ccccc1C2=O | > 80 | > 80 | 100 | 60 | > 80 | 80.4 | 77 |
| O=C(O)c1cc(O)c2c(c1)[C@@H]([C@H]1c3cc(C(=O)O)cc(O)c3C(=O)c3c(O[C@@H]4O[C@H](CO)[C@@H](O)[C@H](O)[C@H]4O)cccc31)c1cccc(O[C@@H]3O[C@H](CO)[C@@H](O)[C@H](O)[C@H]3O)c1C2=O [SENNOSIDE B] | > 80 | > 80 | 100 | 70 | > 80 | 100 | 100 |
| COc1ccc2c(c1)C(=O)c1ccc3c(c1C2=O)OCO3 | > 80 | > 80 | 100 | 70 | > 80 | 78.9 | 56.8 |
| O=C1c2ccccc2C(=O)c2cnccc21 | 10 | > 80 | 100 | 10 | > 80 | 69.5 | 13 |
| CC1=C(C/C=C(\C)CCC[C@H](C)CCC[C@H](C)CCCC(C)C)C(=O)c2ccccc2C1=O [PHYTONADIONE] | > 80 | > 80 | 100 | 70 | > 80 | 100 | 100 |
| CC1C=CNC2=C1C(=O)c1cc(O)ccc1C2=O (stereo unspecified) | > 80 | > 80 | 100 | 70 | > 80 | 66.7 | 62.1 |
| CC1=CC(=O)c2ccccc2C1=O [MENADIONE] | 0 | 70 | 89.4 | 0 | > 80 | 65.7 | 0 |
| Cc1cnc2c(c1)C(=O)c1c(O)ccc(O)c1C2=O | 50 | > 80 | 100 | 40 | > 80 | 82.6 | 16.8 |
| O=C1c2ccccc2-c2ncccc21 | > 80 | > 80 | 100 | 70 | > 80 | 100 | 97.6 |
| O=C1c2ccc(O)c(O)c2C(=O)c2c(O)ccc(O)c21 [QUINALIZARIN] | 60 | > 80 | 100 | 40 | > 80 | 88.4 | 0 |
| CN(C)C1=CC(=O)c2cc(O)ccc2C1=O | > 80 | > 80 | 100 | 60 | > 80 | 100 | 68.5 |
| COc1c(C=O)c(O)cc2c1C(=O)c1ccccc1C2=O [DAMNACANTHAL] | > 80 | > 80 | 100 | 60 | > 80 | 92.8 | 51.6 |
| CC1(c2cc3c(o2)C(=O)c2ccccc2C3=O)OCCO1 | 10 | 10 | 32.4 | 0 | 60 | 0 | 0 |
| COc1cccc2c1C(=O)c1c(ccc3c1OCO3)C2=O | > 80 | > 80 | 100 | 60 | > 80 | 82.5 | 57.6 |
| O=C1C=CC(=O)c2c(O)ccc(O)c21 [NAPHTHAZALIN] | 40 | 50 | 68.9 | 20 | > 80 | 0 | 0 |
| CN(C)C1=CC(=O)c2cccc(O)c2C1=O | > 80 | > 80 | 100 | > 80 | > 80 | 89.7 | 53.8 |
| Cc1ccnc2c1C(=O)c1cccc(O)c1C2=O | 60 | > 80 | 89.1 | 40 | > 80 | 67.4 | 15.4 |
| O=C1C=CC(=O)c2ccccc21 [NAPHTHOQUINONE] | 50 | 50 | 100 | 20 | > 80 | 37.5 | 0 |
| COc1c(CO)c(O)cc2c1C(=O)c1cccc(O)c1C2=O [JUZUNOL] | > 80 | > 80 | 100 | > 80 | > 80 | 100 | 100 |
| CN(C)C1=CC(=O)c2c(O)cccc2C1=O | > 80 | > 80 | 89.2 | > 80 | > 80 | 61.5 | 60.5 |
| Cc1cc(O)c2c(c1)C(=O)c1cc(O)cc(O)c1C2=O [EMODIN] | > 80 | > 80 | 100 | > 80 | > 80 | 91.1 | 54.2 |
| Cc1cnc2c(c1)C(=O)c1ccccc1C2=O | > 80 | > 80 | 100 | 70 | > 80 | 76.5 | 48.7 |
